ChEMBL document CHEMBL1151219, “Bioactive diterpenoids, a new jatrophane and two ent-abietanes, and other constituents from Euphorbia pubescens” (2004)
Activity calls are given as the source filed them. The calls are words filed in the database; no cut-off is given here.

Legend:
Pseudomonas aeruginosa = assay: Antibacterial activity against Pseudomonas aeruginosa ATCC 27853 at 40 ug/spot after 24 hrs by bioautographic agar overlay method; type: functional, organism-based
Escherichia coli = assay: Antibacterial activity against Escherichia coli ATCC 25922 at 40 ug/spot after 24 hrs by bioautographic agar overlay method; type: functional, organism-based
Staphylococcus aureus = assay: Antibacterial activity against Staphylococcus aureus ATCC 6538P at 2.5 ug/spot after 24 hrs by bioautographic agar overlay method; type: functional, organism-based
MCF7 = assay: Growth inhibition of human MCF7 cells after 48 hrs by SRB assay; type: functional; conditions: MCF7, 48 h
NCI-H460 = assay: Growth inhibition of human NCI-H460 cells after 48 hrs by SRB assay; type: functional; conditions: NCI-H460, 48 h
SF-268 [1] = assay: Growth inhibition of human SF268 cells after 48 hrs by SRB assay; type: functional; conditions: SF-268, 48 h
SF-268 [2] = assay: Growth inhibition of human SF268 cells at 100 uM after 48 hrs by SRB assay; type: functional, cell-based

Row | SMILES | Activity (Pseudomonas aeruginosa) | Activity (Escherichia coli) | Activity (Staphylococcus aureus) | GI50 (MCF7) [µM] | GI50 (NCI-H460) [µM] | GI50 (SF-268 [1]) [µM] | Activity (SF-268 [2])
1 | CC1=C2C=C3CC[C@@H]4C(C)(C)[C@@H](O)CC[C@@]4(C)[C@@H]3C[C@H]2OC1=O [HELIOSCOPINOLIDE B] | inactive | inactive | Active | 77 | > 100 | > 100 | inactive
2 | CC(=O)O[C@H]1[C@H](C)C[C@]2(O)C(=O)/C(C)=C/CC(C)(C)[C@H](OC(C)=O)C[C@@H](OC(=O)c3ccccc3)/C(C)=C/[C@@H]12 [PUBESCENE D] |  |  |  | 37.5 | 37.5 | 90.1 | 
3 | C=C1C[C@H](OC(C)=O)C(=O)C(C)(C)/C=C/[C@@H](C)C(=O)[C@@]2(OC(C)=O)C[C@H](C)[C@H](OC(=O)c3ccccc3)[C@]2(O)[C@H]1OC(C)=O [PUBESCENOL] |  |  |  | 69 | 55.6 | 75.2 | 
4 | COc1cccc2c1C(=O)c1c(O)c3c(c(O)c1C2=O)C[C@@](O)(C(=O)CO)C[C@@H]3O[C@H]1C[C@H](N)[C@H](O)[C@H](C)O1 [DOXORUBICIN] |  |  |  | 42.8 | 0.094 | 0.093 | 
5 | CC1=C2C=C3CC[C@@H]4C(C)(C)[C@H](O)CC[C@@]4(C)[C@@H]3C[C@H]2OC1=O [HELIOSCOPINOLIDE A] | inactive | inactive | Active | 67.5 | 72.8 | > 100 | inactive
